Peptide text beside a SMILES is read from it.
Assays:
Format in all cases: cell-based
PrRPR T117A = biological target: T1, PrRPR T117A (Homo sapiens, UniProt P49683, T117A); assay: BRET2 Gq dissociation, T117A; conditions: T117A (2.61), Gq-coupling, AD293 cells; mean ± S.E.M., n = 3; P <0.0001 vs WT; read-out: BRET2 pEC50 (converted)
T1 construct: expressed in transfected cells; host or cells: AD293 cells
Description: (§1) AD293 cells (Agilent) were propagated in Dulbecco’s Modified Eagle Medium (DMEM, Thermo Fisher Scientific), enriched with 10% fetal bovine serum (FBS, Thermo Fisher Scientific), and maintained at 37 °C in a 5% CO2 environment. Cells were then seeded in 6-well dishes at a density of 130,000–150,000 cells per mL and allowed to incubate overnight. On the next day, cells were transfected with plasmids at a 1:1:1:1 ratio for receptor:Gα-RLuc8:Gβ:Gγ-GFP2[52]. PEI MAX 40 K (BIOHUB) was utilized to form complex with the plasmids at a ratio of 3 µL PEI per µg of plasmids, in OptiMEM (Gibco-Thermo Fisher Scientific) at a concentration of 10 ng plasmids per µL OptiMEM. After 24 h of incubation, the culture was harvested by centrifugation with PBS. The cell suspension was then allocated into a white 384-well plate at a volume of 30 µL per well, followed by the addition of 10 µL of freshly prepared 50 µM coelenterazine 400a (Yeasen). […] Plates were subsequently read in a BioTek Synergy H1 microplate reader (BioTek) equipped with 395 nm (RLuc8-coelenterazine 400a) and 510 nm (GFP2) emission filters. BRET2 ratios were calculated as the ratio of the GFP2 emission to RLuc8 emission. […]
(§2) Supplementary Fig. S4 | Effects of mutations in the ligand-binding pocket and G protein intereface of Gq coupled PrRPR by BRET2 assay. […] BRET2 assay signals were measured after stimulation with PrRP20. […]

PrRPR D302A = biological target: T2, PrRPR D302A (Homo sapiens, UniProt P49683, D302A); assay: BRET2 Gi dissociation, D302A; conditions: D302A (6.59), Gi-coupling, AD293 cells; mean ± S.E.M., n = 3; P <0.0001 vs WT; read-out: BRET2 pEC50 (converted)
T2 construct: Flag; expressed in transfected cells; host or cells: AD293 cells
Description: (§3) AD293 cells (Agilent) were propagated in Dulbecco’s Modified Eagle Medium (DMEM, Thermo Fisher Scientific), enriched with 10% fetal bovine serum (FBS, Thermo Fisher Scientific), and maintained at 37 °C in a 5% CO2 environment. Cells were then seeded in 6-well dishes at a density of 130,000–150,000 cells per mL and allowed to incubate overnight. On the next day, cells were transfected with plasmids at a 1:1:1:1 ratio for receptor:Gα-RLuc8:Gβ:Gγ-GFP2[52]. PEI MAX 40 K (BIOHUB) was utilized to form complex with the plasmids at a ratio of 3 µL PEI per µg of plasmids, in OptiMEM (Gibco-Thermo Fisher Scientific) at a concentration of 10 ng plasmids per µL OptiMEM. After 24 h of incubation, the culture was harvested by centrifugation with PBS. The cell suspension was then allocated into a white 384-well plate at a volume of 30 µL per well, followed by the addition of 10 µL of freshly prepared 50 µM coelenterazine 400a (Yeasen). Following a 15-min equilibration period, cells were treated with 10 µL of ligand for an additional 5 min. Plates were subsequently read in a BioTek Synergy H1 microplate reader (BioTek) equipped with 395 nm (RLuc8-coelenterazine 400a) and 510 nm (GFP2) emission filters. BRET2 ratios were calculated as the ratio of the GFP2 emission to RLuc8 emission. Data were normalized to the baseline response of the ligand. […]

PrRPR P142A = biological target: T3, PrRPR P142A (Homo sapiens, UniProt P49683, P142A); assay: BRET2 Gq dissociation, P142A; conditions: P142A (3.33), Gq-coupling, AD293 cells; mean ± S.E.M., n = 3; P <0.0001 vs WT; read-out: BRET2 pEC50 (converted)
T3 construct: expressed in transfected cells; host or cells: AD293 cells
Description: as §1, §2

PrRPR V145A = biological target: T4, PrRPR V145A (Homo sapiens, UniProt P49683, V145A); assay: BRET2 Gi dissociation, V145A; conditions: V145A (3.36), Gi-coupling, AD293 cells; mean ± S.E.M., n = 3; P 0.9852 vs WT; read-out: BRET2 pEC50 (converted)
T4 construct: expressed in transfected cells; host or cells: AD293 cells
Description: as §3

PrRPR Y225A = biological target: T5, PrRPR Y225A (Homo sapiens, UniProt P49683, Y225A); assay: BRET2 Gq dissociation, Y225A; conditions: Y225A (5.38), Gq-coupling, AD293 cells; mean ± S.E.M., n = 3; P <0.0001 vs WT; read-out: BRET2 pEC50 (converted)
T5 construct: Flag; expressed in transfected cells; host or cells: AD293 cells
Description: as §1, §2

PrRPR Y120A [1] = biological target: T6, PrRPR Y120A (Homo sapiens, UniProt P49683, Y120A); assay: BRET2 Gq dissociation, Y120A; conditions: Y120A (2.64), Gq-coupling, AD293 cells; mean ± S.E.M., n = 3; P <0.0001 vs WT; read-out: BRET2 pEC50 (converted)
T6 construct: expressed in transfected cells; host or cells: AD293 cells
Description: as §1, §2

PrRPR L229A = biological target: T7, PrRPR L229A (Homo sapiens, UniProt P49683, L229A); assay: BRET2 Gq dissociation, L229A; conditions: L229A (5.42), Gq-coupling, AD293 cells; mean ± S.E.M., n = 3; P <0.0001 vs WT; read-out: BRET2 pEC50 (converted)
T7 construct: Flag; expressed in transfected cells; host or cells: AD293 cells
Description: as §1, §2

PrRPR T233A = biological target: T8, PrRPR T233A (Homo sapiens, UniProt P49683, T233A); assay: BRET2 Gq dissociation, T233A; conditions: T233A (5.46), Gq-coupling, AD293 cells; mean ± S.E.M., n = 3; P <0.0001 vs WT; read-out: BRET2 pEC50 (converted)
T8 construct: Flag; expressed in transfected cells; host or cells: AD293 cells
Description: as §1, §2

PrRPR H295A = biological target: T9, PrRPR H295A (Homo sapiens, UniProt P49683, H295A); assay: BRET2 Gq dissociation, H295A; conditions: H295A (6.52), Gq-coupling, AD293 cells; mean ± S.E.M., n = 3; P <0.0001 vs WT; read-out: BRET2 pEC50 (converted)
T9 construct: Flag; expressed in transfected cells; host or cells: AD293 cells
Description: as §1, §2

PrRPR F313A = biological target: T10, PrRPR F313A (Homo sapiens, UniProt P49683, F313A); assay: BRET2 Gi dissociation, F313A; conditions: F313A (7.31), Gi-coupling, AD293 cells; mean ± S.E.M., n = 3; P <0.0001 vs WT; read-out: BRET2 pEC50 (converted)
T10 construct: Flag; expressed in transfected cells; host or cells: AD293 cells
Description: as §3

PrRPR C113A = biological target: T11, PrRPR C113A (Homo sapiens, UniProt P49683, C113A); assay: BRET2 Gq dissociation, C113A; conditions: C113A (2.57), Gq-coupling, AD293 cells; mean ± S.E.M., n = 3; P 0.0007 vs WT; read-out: BRET2 pEC50 (converted)
T11 construct: expressed in transfected cells; host or cells: AD293 cells
Description: as §1, §2

PrRPR Y120A [2] = biological target: T6, PrRPR Y120A; assay: BRET2 Gi dissociation, Y120A; conditions: Y120A (2.64), Gi-coupling, AD293 cells; mean ± S.E.M., n = 3; P <0.0001 vs WT; read-out: BRET2 pEC50 (converted)
Description: as §3

T6 sequence (P49683 whole entry Y120A): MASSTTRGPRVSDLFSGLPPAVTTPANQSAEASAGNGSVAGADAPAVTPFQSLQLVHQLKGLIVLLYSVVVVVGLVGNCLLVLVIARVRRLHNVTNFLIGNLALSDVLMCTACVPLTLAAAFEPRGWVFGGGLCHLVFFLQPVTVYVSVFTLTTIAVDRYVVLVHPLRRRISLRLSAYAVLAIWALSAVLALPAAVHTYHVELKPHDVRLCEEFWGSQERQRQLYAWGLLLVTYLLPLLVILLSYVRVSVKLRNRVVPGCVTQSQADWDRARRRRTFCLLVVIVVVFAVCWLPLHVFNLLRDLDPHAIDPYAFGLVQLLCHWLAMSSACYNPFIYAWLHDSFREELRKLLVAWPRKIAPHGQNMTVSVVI
T8 sequence (P49683 whole entry T233A): as the sequence (P49683 whole entry Y120A) above, with A120Y, T233A counted along it
T2 sequence (P49683 whole entry D302A): as the sequence (P49683 whole entry Y120A) above, with A120Y, D302A counted along it
T11 sequence (P49683 whole entry C113A): as the sequence (P49683 whole entry Y120A) above, with C113A, A120Y counted along it
T7 sequence (P49683 whole entry L229A): as the sequence (P49683 whole entry Y120A) above, with A120Y, L229A counted along it
T10 sequence (P49683 whole entry F313A): as the sequence (P49683 whole entry Y120A) above, with A120Y, F313A counted along it
T4 sequence (P49683 whole entry V145A): as the sequence (P49683 whole entry Y120A) above, with A120Y, V145A counted along it
T5 sequence (P49683 whole entry Y225A): as the sequence (P49683 whole entry Y120A) above, with A120Y, Y225A counted along it
T9 sequence (P49683 whole entry H295A): as the sequence (P49683 whole entry Y120A) above, with A120Y, H295A counted along it
T1 sequence (P49683 whole entry T117A): as the sequence (P49683 whole entry Y120A) above, with T117A, A120Y counted along it
T3 sequence (P49683 whole entry P142A): as the sequence (P49683 whole entry Y120A) above, with A120Y, P142A counted along it

EC50 (PrRPR T117A): 107 nM
EC50 (PrRPR D302A): 1120 nM
EC50 (PrRPR P142A): 4.79 nM
EC50 (PrRPR V145A): 2.63 nM
EC50 (PrRPR Y225A): 178 nM
EC50 (PrRPR Y120A [1]): 191 nM
EC50 (PrRPR L229A): 20.4 nM
EC50 (PrRPR T233A): 5.75 nM
EC50 (PrRPR H295A): 4.79 nM
EC50 (PrRPR F313A): 14.8 nM
EC50 (PrRPR C113A): 3.39 nM
EC50 (PrRPR Y120A [2]): 3390 nM
SMILES: CC[C@H](C)[C@H](NC(=O)CNC(=O)[C@H](CCCNC(=N)N)NC(=O)[C@H](CO)NC(=O)[C@H](C)NC(=O)[C@H](Cc1ccc(O)cc1)NC(=O)[C@H](Cc1c[nH]c2ccccc12)NC(=O)[C@H](C)NC(=O)[C@@H]1CCCN1C(=O)[C@H](CC(N)=O)NC(=O)[C@@H](NC(=O)[C@H](CC(=O)O)NC(=O)[C@@H]1CCCN1C(=O)[C@@H](N)[C@@H](C)O)[C@@H](C)CC)C(=O)N[C@@H](CCCNC(=N)N)C(=O)N1CCC[C@H]1C(=O)N[C@H](C(=O)NCC(=O)N[C@@H](CCCNC(=N)N)C(=O)N[C@@H](Cc1ccccc1)C(N)=O)C(C)C [PrRP20] (H-TPDINPAWYASRGIRPVGRF-NH2)
